Measurements reported in US8546338B2, “Self-assembling hydrogels based on dicephalic peptide amphiphiles” (Johnson & Johnson Consumer Companies, Inc., priority 2010, dated 2013).

Assays:
[1] = Dissolution of DPA in ultrapure water; format: physicochemical; settings: ultrapure water (>18 MΩ resistivity)
Description: (§1) Inversion tests were performed to determine qualitatively under which conditions the various DPAs formed self-supporting hydrogels. The various types of DPAs were tested by dissolving them in ultrapure water (>18 MΩ resistivity) at double the desired final concentration followed by mixing in a 1:1 ratio with different liquid mediums. Gelation was deemed to have occurred if the gel supported its own weight upon inverting the vial (FIG. 3A and FIG. 3B). Gelation was tested at final concentrations of 1, 2 and 4 weight percent. We tested phosphate buffered saline (PBS), and Dulbecco's modified eagle media (DMEM) as liquid medium. Typical scale is 100 μl each of DPA solution in water and mixing medium but other scales have been tested. Finally, if no spontaneous gelation occurs, 10 μl of 100 mg/cc calcium chloride solution was added to induce gelation.

[2] = Cell viability of encapsulated hUTCs in DPA gels (Live/Dead); format: cell-based, human; settings: human, human umbilical cord cells (hUTCs) encapsulated in DPA gel; 2% DPA, 100,000 cells, calcium chloride added, after 7 days of culture, Live/Dead; read-out: Viability of hUTC cells in the gels
Description: The viability and proliferation of cells in the gels was evaluated by encapsulating human umbilical cord cells (hUTCs) in the gels. hUTCs were isolated as described in U.S. Pat. No. 7,510,873. Cells were thawed from storage and cultured for four days in Hayflick media. After four days, the cells were trypsinized and counted by the Guava ViaCount methodology (Millipore, Billerica, Mass.). Cells were re-suspended in Hayflick media at a density of 1,000,000 cells/ml. Encapsulation of the cells in the gels was achieved by adding 100 μl cell suspension to 100 μl of a 4 wt % DPA solution in ultrapure in a 24 well plate, resulting in a final DPA concentration of 2%. The gels were incubated for 1 h at 37° C., 5% CO2 after which 1000 μl media was added on top of the gel. Cells were incubated at 37° C., 5% CO2. Every 3-4 days of culture, 500 μl media was replaced.
After mixing of the cell suspension and 4% DPA solution by pipetting up and down, the protocol described above was modified by adding 10 μl 100 mg/ml calcium chloride solution upon which gelation occurred. Final concentrations are 2% in DPA and 100,000 cells. Control gels without cells were prepared by using pure media and additional cell only and cells with calcium chloride controls were prepared as standard 2D culture. After 7 days of culture, the gels were assayed with Live/Dead assay for cell viability and Invitrogen CyQuant GR assay for cell proliferation (Invitrogen, Carlsbad, Calif.). The Live/Dead was performed as described in the provided protocol but at half the […] concentration to reduce non-specific fluorescence due to dye absorption. […] The cells in the gels contained a lot of viable cells (FIG. 410). No dead cells could be observed in the gels. Therefore, the viability of these cells in the gels is very high (>95%).
In a second experiment, 100,000 hUTC cells were encapsulated in 2 wt % Gly-Phe-Gly-Phe-Gly-Phe-Gly-Gln-Gln-Ser (SEQ ID NO: 8) DPA gels. The cells were cultured for 3 weeks and cells were assessed after 1, 2 and 3 weeks with Live/Dead.

[3] = Oscillating rheology, time sweep (kinetics of formation); format: physicochemical
Description: Oscillating rheology by the parallel plates method (radius=25 mm) was performed on 400 μl gels to assess the mechanical strengths of gels. Time sweeps were performed to evaluate kinetics of formation at a constant strain rate of 1% and frequency of 1 rad/s. Strain sweeps were performed ranging from 1-100% strain in increments of 2% at a constant frequency of 1 rad/s. Cross-over of G′ and G″ was used to determine the gel point and point of breakdown. Time sweeps were initiated immediately after mixing the solutions that lead to DPA hydrogel formation. In the strain sweeps, the gels were allowed to form on the plate for 30 minutes before the measurement is initiated.
The gelation process was initiated on the plate at 25° C. by the addition of 10 μl of 100 mg/ml calcium chloride solution to a solution of the DPA in DMEM.

[4] = Gelation experiments: inversion test for self-supporting hydrogels; format: physicochemical; settings: for Gelation (self-supporting gel on inversion), Calcium added: DMEM plus 10 μl of 100 mg/cc calcium chloride solution; for Concentration at which gel forms, Calcium added: DMEM with calcium chloride added; for Gelation (self-supporting gel on inversion), DMEM: DPA solution in water mixed 1:1 with DMEM, no calcium added; for Minimal concentration at which gel formed: in DMEM with calcium added; for Gelation (self-supporting gel on inversion), Water: in water, final concentrations 1, 2 and 4 weight percent tested
Description: as §1

Sprague-Dawley rats = experiment: Biocompatibility study, gel injected into intra-gluteal muscle pocket; format: in vivo; settings: rat; for Tissue response (histology): harvest at 3, 7 and 28 days
Description: A biocompatibility study was performed on Gly-Val-Ala-Val-Ala-Val-Ala-Glu-Gly-Glu (SEQ ID NO: 4), Gly-Phe-Gly-Phe-Gly-Phe-Gly-Glu-Gly-Glu (SEQ ID NO: 5) and Gly-Phe-Gly-Phe-Gly-Phe-Gly-Gln-Gln-Ser (SEQ ID NO: 8) DPAs. Lyophilized DPA powders were e-beam sterilized in 1.5 cc polypropylene cryovials at 15 KGy. Gels were pre-formed in 1 cc syringes by mixing a 4 wt % DPA solution in water for injection in a 1:1 ratio with DMEM followed by immediate aspiration into the syringe. In the case of the formulations with the Glu-Gly-Glu (SEQ ID NO: 27) sequence in the solubility enhancing region, 10 μl of a sterile 100 mg/cc calcium chloride solution was mixed in before aspiration into the syringe. An intra-gluteal muscle pocket was created in Sprague-Dawley rats after which 100 μl of gel was injected using a catheter fitted to the syringe. Subsequently, the pocket was closed with polyglactin 910 sutures sold under the tradename VICRYL (Ethicon, Somerville, N.J.). Tissue was harvested at 3, 7 and 28 days after implantation.

[5] = Titration of DPA acid groups with calcium ions; format: physicochemical; settings: calcium titrated down from 16 to 1 equivalent by halving
From the text: The […] (SEQ ID NO: 3) DPA was titrated with calcium ions to determine the number of acid groups that required ion complexation in order for gelation to occur. Theoretically, there are eight acid groups (four per head group) that could be involved in the gelation process (FIG. 4).

[6] = 2 wt % DPA in DMEM, calcium chloride added, 25° C.

Compound	Solubility in ultrapure water [1]	G′ after 10 minutes [3, 6]	Gelation (self-supporting gel on inversion), Calcium added [4]	Concentration at which gel forms, Calcium added [4] [wt %]	Gelation (self-supporting gel on inversion), DMEM [4]	Minimal concentration at which gel formed [4] [weight percent]	Gelation (self-supporting gel on inversion), Water [4]	further results
CCCCCCCCCCCCCCCC(=O)NC(C(=O)N[C@@H](Cc1ccccc1)C(=O)NCC(=O)N[C@@H](Cc1ccccc1)C(=O)NCC(=O)N[C@@H](Cc1ccccc1)C(=O)NCC(=O)N[C@@H](CCCCN)C(=O)N[C@@H](C)C(=O)O)C(=O)N[C@@H](Cc1ccccc1)C(=O)NCC(=O)N[C@@H](Cc1ccccc1)C(=O)NCC(=O)N[C@@H](Cc1ccccc1)C(=O)NCC(=O)N[C@@H](CCCCN)C(=O)N[C@@H](C)C(=O)O [Phe-Gly-Phe-Gly-Phe-Gly-Lys-Ala]	could not be solubilized							
CCCCCCCCCCCCCCCC(=O)NC(C(=O)NCC(=O)N[C@@H](Cc1ccccc1)C(=O)NCC(=O)N[C@@H](Cc1ccccc1)C(=O)NCC(=O)N[C@@H](Cc1ccccc1)C(=O)NCC(=O)N[C@@H](CCC(=O)O)C(=O)NCC(=O)N[C@@H](CCC(=O)O)C(=O)O)C(=O)NCC(=O)N[C@@H](Cc1ccccc1)C(=O)NCC(=O)N[C@@H](Cc1ccccc1)C(=O)NCC(=O)N[C@@H](Cc1ccccc1)C(=O)NCC(=O)N[C@@H](CCC(=O)O)C(=O)NCC(=O)N[C@@H](CCC(=O)O)C(=O)O [Gly-Phe-Gly-Phe-Gly-Phe-Gly-Glu-Gly-Glu]		4,000 Pa	Yes	1	No	1	No	viability at 168 h [2]: > 95%; G′ after 10 minutes ([3]; 1 wt % DPA in DMEM, calcium chloride added, 25° C.): 300 Pa; Estimated final strength (extrapolation of the curve) ([3]; 2 wt % DPA in DMEM, calcium chloride added): ~10,000 Pa; G′ (strength) after 1 hour [3, 6]: 7,200 Pa; G′ after temperature raised to 37° C. ([3]; 2 wt % DPA, after 1 hour, temperature raised from 25° C. to 37° C.): 5,000 Pa; Gross observations (Sprague-Dawley rats; in vivo): some fluid buildup at day 3
CCCCCCCCCCCCCCCC(=O)NC(C(=O)N[C@H](C(=O)N[C@@H](C)C(=O)N[C@H](C(=O)N[C@@H](C)C(=O)N[C@H](C(=O)N[C@@H](C)C(=O)N[C@@H](CCCCN)C(=O)N[C@@H](C)C(=O)O)C(C)C)C(C)C)C(C)C)C(=O)N[C@H](C(=O)N[C@@H](C)C(=O)N[C@H](C(=O)N[C@@H](C)C(=O)N[C@H](C(=O)N[C@@H](C)C(=O)N[C@@H](CCCCN)C(=O)N[C@@H](C)C(=O)O)C(C)C)C(C)C)C(C)C [Val-Ala-Val-Ala-Val-Ala-Lys-Ala]	could not be solubilized							
CCCCCCCCCCCCCCCC(=O)NC(C(=O)NCC(=O)N[C@H](C(=O)N[C@@H](C)C(=O)N[C@H](C(=O)N[C@@H](C)C(=O)N[C@H](C(=O)N[C@@H](C)C(=O)N[C@@H](CCC(=O)O)C(=O)NCC(=O)N[C@@H](CCC(=O)O)C(=O)O)C(C)C)C(C)C)C(C)C)C(=O)NCC(=O)N[C@H](C(=O)N[C@@H](C)C(=O)N[C@H](C(=O)N[C@@H](C)C(=O)N[C@H](C(=O)N[C@@H](C)C(=O)N[C@@H](CCC(=O)O)C(=O)NCC(=O)N[C@@H](CCC(=O)O)C(=O)O)C(C)C)C(C)C)C(C)C [Gly-Val-Ala-Val-Ala-Val-Ala-Glu-Gly-Glu]		140 Pa	Yes	2	No	2	No	viability at 168 h, 2 % [2]: > 95%; Gross observations (Sprague-Dawley rats; 100 μl gel, intra-gluteal muscle pocket, day 3, no longer observed at other time points): some fluid buildup at day 3; Tissue response (histology) (Sprague-Dawley rats; 100 μl gel, intra-gluteal muscle pocket): some necrosis of the underlying tissue layer was observed; Tissue response (histology) (Sprague-Dawley rats; 100 μl gel, intra-gluteal muscle pocket, listed as Val-Ala-Val-Ala-Val-Ala-Glu-Gly-Glu (SEQ ID NO: 39)): necrosis of the underlying muscle tissue
CCCCCCCCCCCCCCCC(=O)NC(C(=O)N[C@H](C(=O)N[C@@H](C)C(=O)N[C@H](C(=O)N[C@@H](C)C(=O)N[C@H](C(=O)N[C@@H](C)C(=O)N[C@@H](CCC(=O)O)C(=O)N[C@@H](CCC(=O)O)C(=O)N[C@@H](CCC(=O)O)C(=O)O)C(C)C)C(C)C)C(C)C)C(=O)N[C@H](C(=O)N[C@@H](C)C(=O)N[C@H](C(=O)N[C@@H](C)C(=O)N[C@H](C(=O)N[C@@H](C)C(=O)N[C@@H](CCC(=O)O)C(=O)N[C@@H](CCC(=O)O)C(=O)N[C@@H](CCC(=O)O)C(=O)O)C(C)C)C(C)C)C(C)C [Val-Ala-Val-Ala-Val-Ala-Glu-Glu-Glu]			Yes	2	No	2	No	Transition point between stable gel formation and no or weak gel formation [5]: between two and one equivalent of calcium
